Reference: patent publication US20140072573A1, “METHOD OF TREATING RHEUMATOID ARTHRITIS” (Institut National de la Sante et de la Recherche Medicale …, priority 2012, published 2014)
Entries after “also recorded” stand apart in the source; their conditions may differ.

Experiments:
Type in all cases: cell-based, human
[1] = tested on: VE-cadherin; assay: VE-cadherin cytoplasmic fragment (VE-cyto) and 125 kDa full length protein in HUVEC extracts, western blot; conditions: for effect on TNFα-induced VE-cyto generation: L685 present
Description: (§1) Cell culture, extraction and immunoprecipitation: Endothelial cells were obtained from human umbilical vein (HUVECs) and grown to reach confluence in M199 medium supplemented with 10% fetal bovine serum (FCS), 2% Low Serum Growth Supplement LSGS (Cascade Biologics, USA) as previously described (Garnier-Raveaud et al., 2001). The 80% confluent HUVECs (passages 2 or 4) were used for most experiments. Confluent cells in 60 mm dishes were serum-starved in 1% fetal calf serum in M 199 for 24 h prior to testing. Before TNFα stimulation the cells were serum-starved for 2 hours, and then pre-treated for 15 min with sodium pervanadate (10 μM) and/or inhibitors as mentioned in text and figure legends. HUVECs were then stimulated with different concentrations of TNFα for various lengths of time as indicated. Otherwise, in most parts of this study, precisely in inhibition experiments TNFα was used at high concentration (i.e 100 ng/mL). As the inhibitors were diluted in dimethyl-sulfoxide (DMSO), control cells were systematically treated with DMSO 0.1% in any inhibition experiment.
Cells stimulation was stopped by medium collection and addition of 500 μl of ice-cold buffer A. The cells were harvested, homogenized and sonicated for 20 seconds. Cell lysates were collected after centrifugation for 15 min at […] at 14,000 g. The protein concentration was measured using the micro-bicinchoninic acid protein assay and cell lysates were stored at −80° C. before use.
(§2) Western blotting: Proteins were resolved by SDS-PAGE and transferred to nitrocellulose.

[2] = tested on: VE-cadherin; assay: VE-cadherin extracellular fragment (VE-90) release in HUVEC conditioned media, western blot; conditions: for effect on TNFα-induced VE-90 release: 15 min pre-treatment, TNFα 100 ng/ml 45 min
Description: as §1
For conditioned medium analysis, the medium was collected and centrifuged for 15 minutes at 14,000 g at 4° C. The resulting supernatant was collected and proteins were concentrated by trichloro acetic acid precipitation (10%) overnight. After centrifugation at 14,000 g for 30 min, the pellet was re-suspended in Tris 50 mM (pH 11) and analyzed by SDS-PAGE and Western blotting.
as §2

[3] = tested on: VE-cadherin; assay: VE-cadherin tyrosine phosphorylation in HUVEC lysates, immunoprecipitation and phosphotyrosine western blot; conditions: 50 μM, TNFα 100 ng/ml
Description: as §1
Cells stimulation was stopped by medium collection and addition of 500 μl of ice-cold buffer A. The cells were harvested, homogenized and sonicated for 20 seconds. […] The protein concentration was measured using the micro-bicinchoninic acid protein assay and cell lysates were stored at −80° C. before use. […]

[4] = tested on: HUVECs; assay: Cell viability of treated HUVECs

With sodium pervanadate the “effect on VE-cyto generation upon cytokine treatment” value ([1]; pervanadate pre-treated versus non pre-treated HUVECs) was “tremendous increase”.
In the case of O=c1c(-c2ccc(O)cc2)coc2cc(O)cc(O)c12 [genistein], the “effect on TNFα-induced VE-90 release” value ([2]; 50 μM) is reported as “strongly decreased”, the “effect on TNFα-induced VE-cadherin tyrosine phosphorylation” value [3] is reported as “inhibited” and the “effect on TNFα-induced VE-cyto generation” value ([1]; 50 μM pre-treatment) is reported as “strongly impaired”. The “effect on VE-cyto generation with or without pervanadate pre-treatment” value ([1]; both conditions (pervanadate pre-treated or not), TNFα) was “still decreased” and the cell viability ([4]; 50 μM) was “without affecting cell viability”.
For CC(C)(C)n1nc(-c2ccc(Cl)cc2)c2c(N)ncnc21 [PP2], the “effect on TNFα-induced VE-90 release” value ([2]; 10 μM) was “strongly decreased”, the “effect on TNFα-induced VE-cyto generation” value ([1]; 10 μM pre-treatment) was “strongly impaired” and the cell viability ([4]; 10 μM) was “without affecting cell viability”.
With TNFα the “VE-90 release versus TNFα concentration” value ([2]; HUVECs, TNFα 0 up to 10 ng/ml, 45 min) was “increased in a dose-dependent manner; also recorded: dose-dependent release”, the “time of TNFα stimulation after which VE-90 was detected” value ([2]; HUVECs, TNFα 100 ng/ml) was 10 min and the “VE-90 release in conditioned media over time” value ([2]; HUVECs, TNFα 100 ng/ml, 5 to 60 min) was “time-dependent release; also recorded: increased in a time-dependent manner up to 60 min”. The “low TNFα concentration at which VE-90 release was early detected” value ([2]; HUVECs, dose-response 0 up to 10 ng/ml, 45 min) was 0.5 ng/mL and the “appearance of VE-cyto upon TNFα challenge” value ([1]; HUVEC extracts, γ-secretase inhibitor L685 present, TNFα 100 ng/ml) was “clearly detected”.
With CNC(=O)[C@H](Cc1c[nH]c2ccccc12)NC(=O)[C@@H](CC(=O)NO)CC(C)C [GM6001] the “effect on TNFα-induced VE-90 release” value ([2]; 10 μM) was “drastically decreased”, the “effect on TNFα-induced VE-cyto generation” value ([1]; 10 μM pre-treatment) was “almost completely abrogated” and the cell viability ([4]; 10 μM) was “without affecting cell viability”.
